From patent publication US20080139573A1, “Treatment of resistant Schizophrenia and other CNS disorders” (Copharm, priority 2006, published 2008)
“Also recorded” adds a separate entry of the source.

How the values were obtained:
Assay type in all cases: in vivo, human
[1] = system: recurrent depression patient; assay: Case report: recurrent depression, switched to oral zuclopenthixol; conditions: for outcome under previous antidepressants: appropriate doses, sufficient duration, compliance ascertained
Source text: Recurrent depressive patient is defined as a patient experiencing two or more successive major depressive episodes that are separated by at least two months of not experiencing adequate symptoms of depression to qualify for major depressive disorder (DSM-IV).
Subject diagnosed with recurrent depression for the first time. […] Compliance with treatment was ascertained. […] After 2 years, the patient had still not relapsed.

[2] = system: therapy resistant depression patient; assay: Case report: therapy resistant depression, switched to oral zuclopenthixol; conditions: for response to previous antidepressants: appropriate doses, sufficient duration
Source text: Resistant depression patient is defined as a patient not responding to an appropriate pharmacological treatment.
Subject one diagnosed with chronic depression for the first time. […] They were then switched to oral zuclopenthixol. Before initiating oral zuclopenthixol treatment, the patient was considered as “markedly ill”.

[3] = system: therapy refractory schizophrenic patient; assay: Case report: therapy refractory schizophrenia, switched to oral zuclopenthixol
Source text: Subject two diagnosed with therapy refractory schizophrenia for the first time The patient had been treated with appropriate doses and for sufficient duration with oral aripiprazole, oral loxapine and oral olanzapine at appropriate doses and for sufficient duration. Compliance with treatment was ascertained. […] The patient was then switched to oral zuclopenthixol.

[4] = system: therapy resistant schizophrenic patient; assay: Case reports: therapy resistant schizophrenic patients switched to oral zuclopenthixol; conditions: for response to previous antipsychotic agents: Case 1, oral, successive, appropriate doses and sufficient duration, compliance controlled
Source text: Therapy resistant schizophrenic patient is a schizophrenic patient who has tried two successive antipsychotic agents for a period of 6 weeks at an appropriate dosage with no significant symptomatic relief of symptoms and who was compliant to pharmacological treatment. This definition comprises determining relief of symptoms by measurement on a clinical scale such as PANSS (positive and negative […] scale). The relief should correspond to a reduction of the PANSS scale of at least 20% after a period of 6 weeks treatment of an appropriate dosage. Lack of relief of symptoms should be assessed prospectively and should not be documented on the basis of historical information. Compliance to treatment should be documented through a third party such as nurse or care giver. Lack of compliance is often a reason for unsatisfactory outcome of schizophrenia therapy; if compliance is not documented the diagnosis of therapy resistant schizophrenia cannot be ascertained. Appropriate dosage is defined as an equivalent chlorpromazine of 400-700 mg per day.
Case 1. […] Compliance to treatment was ascertained. Before being given zuclopenthixol, the patient presented severe debilitating schizophrenic symptoms.
Case 2. Subject diagnosed with therapy resistant schizophrenia for the first time. […] Compliance with treatment was ascertained. The patient was then switched to oral zuclopenthixol. Before initiating zuclopenthixol treatment, the patient was considered as “markedly ill”.
Case 3. Subject diagnosed with therapy resistant schizophrenia for the first time. […] Compliance with treatment was ascertained. The patient was then switched to oral zuclopenthixol. Before initiating zuclopenthixol treatment, the patient was considered as “among the most extremely ill patients”. After 8 weeks of treatment with zuclopenthixol, the patient was evaluated as having “much improved”, as confirmed by C.G.I. and P.A.N.S.S.
Case 4. Subject diagnosed with therapy resistant schizophrenia for the first time. The patient had been treated with appropriate doses and for sufficient duration with the following antipsychotics: oral risperidone, oral aripiprazole, oral loxapine, and oral olanzapine. Compliance with treatment was ascertained. The patient was then switched to oral zuclopenthixol. Before initiating zuclopenthixol treatment, the patient was considered as “severely ill”. After 8 weeks of treatment with zuclopenthixol, the patient was evaluated as having “much improved”, as confirmed by C.G.I. and P.A.N.S.S.
Case 5. Subject diagnosed with therapy resistant schizophrenia for the first time. […] The patient was then switched to oral zuclopenthixol. […] After 8 weeks of treatment with zuclopenthixol, the patient was evaluated as having “much improved”, as confirmed by C.G.I. and P.A.N.S.S.

[5] = system: therapy resistant bipolar disorder patient; assay: Case reports: therapy resistant bipolar disorder, prescribed oral zuclopenthixol; conditions: for response to previous treatments: appropriate doses, sufficient duration, compliance ascertained
Source text: Resistant bipolar disorder patient is defined as a patient not responding to an appropriate pharmacological treatment.
Case 1. Subject diagnosed with therapy resistant bipolar disorder I presented as having manic state. They had been diagnosed for the first time. […] Compliance with treatment was ascertained. They were then prescribed oral zuclopenthixol. Before initiating oral zuclopenthixol treatment, the patient was considered as “among the most extremely ill patients”. After 8 weeks of treatment with zuclopenthixol, the patient was evaluated as having “much improved”.
Case 2. Subject diagnosed with therapy resistant bipolar disorder 11 presented with depressive symptoms. They had been diagnosed for the first time. […] Compliance with treatment was ascertained. They were then prescribed oral zuclopenthixol. Before initiating oral zuclopenthixol treatment, the patient was considered as “markedly ill”.

[6] = system: naïve schizophrenic patient; assay: Case report: naïve schizophrenic patient given zuclopenthixol as first antipsychotic; conditions: 50 mg p. o. per day
Source text: Naïve schizophrenic patient is a schizophrenic patient who had never been treated with an antipsychotic agent.
After a period of 5 years of treatment, the patient had still not relapsed.

[7] = person two, after 8 weeks of treatment
[8] = person one, after 8 weeks of treatment

CN(C)CCC=C1c2ccccc2CCc2ccccc21 [amytriptiline]
outcome under previous antidepressants [1]: regularly experiencing new episodes of depression
response to previous antidepressants [2]: without satisfactory response

O=C1CCc2ccc(OCCCCN3CCN(c4cccc(Cl)c4Cl)CC3)cc2N1 [aripiprazole]
response to previous antipsychotics ([3]; appropriate doses, sufficient duration, significant troublesome residual symptoms remained): significant relief of symptoms

CNCCC(Oc1ccc(C(F)(F)F)cc1)c1ccccc1 (stereo not shown) [fluoxetine]
outcome under previous antidepressants [1]: regularly experiencing new episodes of depression

O=C(CCCN1CCC(O)(c2ccc(Cl)cc2)CC1)c1ccc(F)cc1 [haloperidol]
response to previous antipsychotic agents [4]: did not respond

Nc1nnc(-c2cccc(Cl)c2Cl)c(N)n1 [lamotrigine]
response to previous treatments [5]: without satisfactory response

Fc1ccc([C@@H]2CCNC[C@H]2COc2ccc3c(c2)OCO3)cc1 [paroxetine]
outcome under previous antidepressants [1]: regularly experiencing new episodes of depression
response to previous antidepressants [2]: without satisfactory response

Cc1nc2n(c(=O)c1CCN1CCC(c3noc4cc(F)ccc34)CC1)CCCC2 [risperidone]
response to previous antipsychotic agents [4]: did not respond

CN[C@H]1CC[C@@H](c2ccc(Cl)c(Cl)c2)c2ccccc21 [sertraline]
response to previous antidepressants [2]: without satisfactory response
response to previous treatments [5]: without satisfactory response

Cl.Cl.OCCN1CCN(CC/C=C2/c3ccccc3Sc3ccc(Cl)cc32)CC1 [zuclopenthixol, 4-[(3Z)-3-(2-chloro-9H-thioxanthen-9-ylidene)propyl]-1-piperazineethanol dihydrochloride]
effect on schizophrenic symptoms ([4]; Case 1, patient, exclusively oral zuclopenthixol, soon after start of treatment): major relief of schizophrenic symptoms
evaluation of improvement, confirmed by C.G.I. and P.A.N.S.S. ([4]; Cases 2-5, oral, after 8 weeks of treatment, dihydrochloride): very much improved; also recorded: much improved
evaluation of improvement, confirmed by C.G.I. and P.A.N.S.S. [3, 7]: much improved
remission [3, 7]: achieve remission
outcome of first antipsychotic treatment [6]: successful
period of treatment without relapse [6]: ≥ 5 years
period without relapse ([1]; person): ≥ 2 years
response to treatment ([1]; person): marked response
evaluation of improvement, confirmed by C.G.I. [2, 8]: much improved
reduction of depression on the Hamilton Depression Scale [2, 8]: marked response
evaluation of improvement ([5]; after 8 weeks of treatment, Case 1 bipolar I manic state, Case 2 depressive symptoms, dihydrochloride): much improved; also recorded: very much improved
